Laboratory results reported in PubChem BioAssay AID1963832 (Molecular Pharmacology Branch, DTP, NCI, 2024).

System: 885724-159-R-J1-PDC complex spheroid viability
Experiment: Anticancer human tumor 885724-159-R-J1-PDC patient-derived pancreatic adenocarcinoma cell line growth inhibition [POLQ]
Settings: for IC50: curve of first compound; for viability, T/C: stronger effect = lower value
In short: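 Growth inhibition in 3D: complex spheroids (tumor PDC, HUVEC, MSC) treated with POLQ inhibitor combinations; where Cmax unknown, highest tested concentration 10 microM, except SN-38 at 1 microM.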
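Further: spheroids exposed to compounds for 7 days.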

In the case of `Cn1ncnc1[C@H]1c2n[nH]c(=O)c3cc(F)cc(c23)N[C@@H]1c1ccc(F)cc1` + COC1C(OC(N)=O)C(O)C(Oc2ccc3c(O)c(NC(=O)c4ccc(O)c(CC=C(C)C)c4)c(=O)oc3c2C)OC1(C)C, the IC50 (second compound 0.0316 µM) is reported as > 100 nM, the IC50 (second compound 0.1 µM) is reported as > 100 nM and the IC50 (second compound 0.316 µM) is reported as > 100 nM. The IC50 (second compound 1 µM) was > 100 nM, the IC50 (second compound 3.16 µM) was > 100 nM and the IC50 (second compound 10 µM) was > 100 nM. It also gave a viability, T/C (second compound 0.0316 µM, first compound 0.000316 µM) of 91.2%, a viability, T/C (second compound 0.0316 µM, first compound 0.001 µM) of 103% and a viability, T/C (second compound 0.0316 µM, first compound 0.00316 µM) of 92.2%. For the same molecule, the viability, T/C (second compound 0.0316 µM, first compound 0.01 µM) was 94.9%, the viability, T/C (second compound 0.0316 µM, first compound 0.0316 µM) was 87% and the viability, T/C (second compound 0.0316 µM, first compound 0.1 µM) was 72.1%. The viability, T/C (second compound 0.1 µM, first compound 0.000316 µM) was 101%, the viability, T/C (second compound 0.1 µM, first compound 0.001 µM) was 95.3% and the viability, T/C (second compound 0.1 µM, first compound 0.00316 µM) was 94.5%. For the same molecule, the viability, T/C (second compound 0.1 µM, first compound 0.01 µM) was 93.6%, the viability, T/C (second compound 0.1 µM, first compound 0.0316 µM) was 89.8% and the viability, T/C (second compound 0.1 µM, first compound 0.1 µM) was 82.8%. It also gave a viability, T/C (second compound 0.316 µM, first compound 0.000316 µM) of 113%, a viability, T/C (second compound 0.316 µM, first compound 0.001 µM) of 92% and a viability, T/C (second compound 0.316 µM, first compound 0.00316 µM) of 95.6%. For the same molecule, the viability, T/C (second compound 0.316 µM, first compound 0.01 µM) was 95.4%, the viability, T/C (second compound 0.316 µM, first compound 0.0316 µM) was 89.4% and the viability, T/C (second compound 0.316 µM, first compound 0.1 µM) was 78.7%. For the same molecule, the viability, T/C (second compound 1 µM, first compound 0.000316 µM) was 105%, the viability, T/C (second compound 1 µM, first compound 0.001 µM) was 86.6% and the viability, T/C (second compound 1 µM, first compound 0.00316 µM) was 95.7%. It also gave a viability, T/C (second compound 1 µM, first compound 0.01 µM) of 85%, a viability, T/C (second compound 1 µM, first compound 0.0316 µM) of 83.6% and a viability, T/C (second compound 1 µM, first compound 0.1 µM) of 77%. For the same molecule, the viability, T/C (second compound 3.16 µM, first compound 0.000316 µM) was 105%, the viability, T/C (second compound 3.16 µM, first compound 0.001 µM) was 87.5% and the viability, T/C (second compound 3.16 µM, first compound 0.00316 µM) was 90.2%. It also gave a viability, T/C (second compound 3.16 µM, first compound 0.01 µM) of 98.5%, a viability, T/C (second compound 3.16 µM, first compound 0.0316 µM) of 93.7% and a viability, T/C (second compound 3.16 µM, first compound 0.1 µM) of 75.7%. The viability, T/C (second compound 10 µM, first compound 0.000316 µM) was 95.1%, the viability, T/C (second compound 10 µM, first compound 0.001 µM) was 97.4% and the viability, T/C (second compound 10 µM, first compound 0.00316 µM) was 85%. The viability, T/C (second compound 10 µM, first compound 0.01 µM) was 90.5%, the viability, T/C (second compound 10 µM, first compound 0.0316 µM) was 88.4% and the viability, T/C (second compound 10 µM, first compound 0.1 µM) was 75.3%.
